Assays:
[1] = tested on: primary lung epithelium cells; test: Cytotoxicity (Alamar blue); format: cell-based, human; settings: ~16 hours (overnight), reduced serum conditions
Procedure: FIGS. 11A-11B are graphs showing cytotoxicity against primary lung epithelium cells in serum-free condition. Cells were seeded in complete growth medium (Minimal essential medium supplemented with 10% fetal bovine serum) at near-confluence into a 96-well plate and allowed to settle for 24-hours. Media was then replaced to OptiMEM I reduced serum medium containing peptide or vehicle alone (DBPS) and cells were incubated overnight (16 hours). A resazurin based dye (Alamar blue) was added directly to media and conversion of resazurin to resorufin was evaluated following two hours. % Survival represents the proportion of viable cells in peptide treated cells relative to cells treated with vehicle alone. […] Each peptide was tested in triplicate.
FIG. 12 is a graph showing comparison of toxicities against Lung Primary Epithelial cells and Lung Cancerous Epithelial Cells, derived from H358 cell-line. […] Each peptide was tested in triplicate.
Cytotoxicity. Cells were seeded in complete growth medium (Minimal Essential Medium, MEMα, supplemented with 10% Fetal Bovine Serum) into a culture-treated 96-well plate at a density of 25000 cells per well. After 24 hours, culture media was aspirated and replaced with media containing the selected peptide. No-serum experiments were conducted in Opti-MEM I reduced serum media (ThermoFisher, 31985062) and 10% serum experiments were performed in complete growth medium. In all cases, DBPS was used as a vehicle only control and buffer to serially dilute the peptides. After exposure to the peptides or vehicle-alone for the defined period, Alamar blue dye (resazurin) was added directly to the media and allowed to incubate for two hours. Following incubation, A570/A600 measurements were made to calculate reduction of resazurin dye to resorufin. A ratio of reduction in treated versus untreated cells was calculated in order to determine overall cell viability. The human cells were always maintained in a 37° C. incubator under 5% CO2.

[2] = tested on: E. coli ML35p inner membrane; test: Inner membrane disruption (β-galactosidase leakage, ONPG); format: cell-based, Escherichia coli
Procedure: Interactions with Bacterial Membranes. Interaction of the peptides with bacterial membranes in different phosphate buffers were evaluated using E. coli ML35p, constructed in our laboratory. At first, competent cells of E. coli ML35 were produced by conventional competent cell preparation method, then transformed with pBR322 plasmid. Transformed colonies were selected after growing on Luria-agar containing 50 μg/mL ampicillin. A single transformed colony was grown in presence of ampicillin first in Luria broth and then in MHBII and stored as 20% glycerol stock at −80° C. This frozen stock, on the day of the experiment, was thawed and grown in MHBII containing ampicillin up to OD600 nm=0.8-0.9, washed with PBS and then suspended in the respective buffer up to the required OD600 nm for use.
Membrane Disruptions. The outer and the inner membrane disruptions by the peptides were evaluated by incubating bacterial suspension with peptides and then measuring the activity of enzymes leaked out of the cells. 100 μL of 10× concentration of peptide in water was incubated with 900 μL bacterial suspension (OD600 nm˜0.1) in respective buffer for 3 hours at room temperature with gentle rotation. […]
The inner membrane disruption was tested by using the activity of β-galactosidase present in the […] of E. coli ML35p, which lacks lactose-permease. Peptides when disrupt the inner membrane enough to cause β-galactosidase to come out, the degree of disruption can be measured by the virtue of the kinetics of the enzyme and using a substrate called ortho-Nitrophenyl-β-galactoside (ONPG). β-galactosidase mediated hydrolyzed product of ONPG has an absorbance λmax=420 nm. Supernatant collected from the incubation of peptide with bacteria was added with ONPG solution in DPBS and incubated at 35° C. and continuous absorbance readings. The slope of the linear section of the absorbance curve (absorbance vs time), was used as a measure of membrane disruption and the % Disruption was calculated as: Equation 8: […]

Sequence | concentration decreasing resazurin reduction by 50% (LD50) [1] [µM] | concentration over which significant toxicity was observed [1] [µM] | inner membrane disruption relative to HCMAB ([2]; DPBS, HCMAB = 100%) | inner membrane disruption relative to HCMAB ([2]; 10 mM phosphate buffer)
RRWKRFFKRWKGGVIGVTFPF (SEQ ID NO: 50) [ATRA1-R3W2-HYD, ATRA1-R3W2 with hydrophobic tail of NA-CATH joined by -GG-] | ~50 | ~50 | – | –
RRWKRFFKRWK (SEQ ID NO: 15) [ATRA1-R3W2] | – | – | highest degree of inner membrane disruption | –
KRFKKFFKKLK (SEQ ID NO: 2) [ATRA1, first 11 residues of NA-CATH] | – | – | below 10% | highest

From patent US11447533B2, “Antimicrobial and anticancer peptides and conjugates and compositions, methods, articles and kits relating thereto” (George Mason Research Foundation, Inc., priority 2018, dated 2022)
